Reference: patent US20240270801A1, “EPITOPE PEPTIDE OF HUMAN ALPHA-SYNUCLEIN AND PHARMACEUTICAL COMPOSITION INCLUDING SAID PEPTIDE” (Sumitomo Pharma Co., Ltd., priority 2021, published 2024)
Non-standard residues stand in square brackets, D forms with d. No end group written: not given here. KLH = keyhole limpet hemocyanin; Ahx = NCCCCCC(=O)O

What was measured:
aggregated human αSyn = assay: Antibody-inducing ability in mice: ELISA antibody titer of immune serum with respect to aggregated human αSyn; format: in vivo, mouse; settings: for Antibody-inducing ability regarding the aggregated human αSyn (in words): Example 2, balb/c mice; for Antibody titer with respect to aggregated human αSyn (N = 4 − 6, mean ± standard deviation): Example 2, serum 2 weeks after second administration; for Antibody titer with respect to aggregated human αSyn, relative to control: mice
Protocol: (§1) Using the various AJ peptide-human αSyn peptide conjugates produced in Example 1, an antibody-inducing ability with respect to human αSyn in mice was evaluated. The various AJ-human αSyn peptide conjugates (250 μg/mouse) or KLH-DMPVDPDN (25 μg/mouse) in physiological saline were intramuscularly administered to balb/c mice (females, 6 weeks old, CLEA Japan, Inc.) twice at a 2-week interval for immunization using aluminum hydroxide (Alum) (InvivoGen, 50 μg/mouse) as an adjuvant. As a negative control, physiological saline (100 μL/mouse) comprising the same amount of aluminum hydroxide was administered twice. Two weeks after the second administration, serum was recovered to evaluate the antibody titer with respect to human αSyn by ELISA.
(§2) ELISA was performed by the following method. 96-well plates were coated with human αSyn (Sigma) at 0.2 μg/well. After washing with PBST (Phosphate Buffered Saline comprising 0.05% Tween) once, blocking was performed with 3% skim milk (FUJIFILM Wako Pure Chemical Corporation). After washing with PBST three times, diluted serum was added to cause a reaction at room temperature for 1 hour. Furthermore, after washing with PBST three times, Goat anti-mouse IgG-HRP (abcam) was added to cause a reaction at room temperature for 1 hour. After washing with PBST three times, SureBlue TMB Microwell Peroxidase Substrate (KPL) was added to cause a reaction at room temperature for 10 minutes while light shielding. An equal volume of a TMB Stop Solution (KPL) was added to stop the reaction, and the absorbance at 450 nm was measured. ELISA with respect to aggregated human αSyn was performed by coating with the aggregated human αSyn (Stress Marq) at 15 ng/well instead of human αSyn in the above-mentioned method.
The antibody-inducing ability of the AJ-human αSyn peptide conjugates (AJ-p54, AJ-p54-KLH, and AJ-DMPVDPDN) produced in Example 1 with respect to human αSyn and aggregated human αSyn in mice was evaluated. Physiological saline or the AJ-human αSyn peptide conjugate (250 μg/mouse) was intramuscularly administered to balb/c mice (females, 6 weeks old, CLEA Japan, Inc.) twice at a 2-week interval using Alum (InvivoGen, 50 μg/mouse) as an adjuvant. Furthermore, KLH-DMPVDPDN (25 μg/mouse) was administered using Alum (InvivoGen, 50 μg/mouse) as an adjuvant. Two weeks after the second administration, serum was recovered to evaluate the antibody titer by ELISA. ELISA was performed by the method described in Example 2.
The antibody-inducing ability of the produced various human αSyn peptide conjugates with respect to human αSyn and aggregated human αSyn in the mice was evaluated by the method described in Example 2 using the antibody titers with respect to human αSyn and aggregated human αSyn of the mouse immune serum. […] In Table 6, the antibody titer of AJ-p242, AJ-p244, AJ-p347, or AJ-p361 is shown with the antibody titer of AJ-p150 as a control being 1 (logarithm). In addition, the antibody titers of AJ-p229, AJ-p237, and AJ-p298 are shown with the antibody titer of AJ-p54 as a control being 1 (logarithm).
The antibody-inducing ability of the AJ-human αSyn peptide conjugates with a modified linker with respect to human αSyn and aggregated human αSyn in the mice was evaluated using the antibody titers with respect to human αSyn and aggregated human αSyn of the mouse immune serum. […] In Table 8, the antibody titers of the AJ-human αSyn peptide conjugates with various modified linkers comprising p54 are shown with the antibody titer of AJ-p54 as a control being 1 (logarithm). In addition, the antibody titers of the AJ-human αSyn peptide conjugates with various modified linkers comprising p150 are shown with the antibody titer of AJ-p150 as a control being 1 (logarithm).

human αSyn = assay: Antibody-inducing ability in mice: ELISA antibody titer of immune serum with respect to human αSyn; format: in vivo, mouse; design: key to Antibody titer with respect to human αSyn, relative to control: log titer relative to control conjugate (control = 1); settings: for Antibody titer with respect to human αSyn (N = 4 − 6, mean ± standard deviation): Example 2, serum 2 weeks after second administration; for Antibody titer with respect to human αSyn, relative to control / Antibody titer (N = 4 − 6, mean ± standard deviation) with respect to human αSyn: mice; for Antibody titer (N = 4 − 6, mean ± standard deviation) with respect to human αSyn: Example 3, same manner as Example 2; for Antibody titer compared with control conjugate (in words): Example 9, mice, human αSyn and aggregated human αSyn, control AJ-p150 or AJ-p54
Protocol: as §1
as §2, with “above-mentioned method. […]” for “above-mentioned method.”
The antibody-inducing ability of the produced various human αSyn peptide conjugates with respect to human αSyn and aggregated human αSyn in the mice was evaluated by the method described in Example 2 using the antibody titers with respect to human αSyn and aggregated human αSyn of the mouse immune serum. […] In Table 6, the antibody titer of AJ-p242, AJ-p244, AJ-p347, or AJ-p361 is shown with the antibody titer of AJ-p150 as a control being 1 (logarithm). In addition, the antibody titers of AJ-p229, AJ-p237, and AJ-p298 are shown with the antibody titer of AJ-p54 as a control being 1 (logarithm). […]

[1] = balb/c mice, i.m. twice at 2-week interval, Alum, AJ conjugates 250 μg/mouse, KLH-DMPVDPDN 25 μg/mouse
[2] = Example 10, modified linker, titer of AJ-p54 or AJ-p150 as control being 1 (logarithm)
[3] = Example 9, N = 4, titer of AJ-p150 or AJ-p54 as control being 1 (logarithm)
[4] = Example 4, balb/c mice, i.m. twice at 2-week interval, Alum, AJ conjugates 250 μg/mouse, KLH-DMPVDPDN 25 μg/mouse

For “ELKLIFLHRLKRLRKRLKRKXKKDQLGKNEE (ELKLIFLHRLKRLRKRLKRK[Ahx]KKDQLGKNEE) [AJ-p167]”, which “Antibody-inducing ability regarding the aggregated human αSyn (in words)” value (aggregated human αSyn) is on record?
The value was “particularly strong antibody-inducing ability”.

And the “Antibody titer with respect to aggregated human αSyn (N = 4 − 6, mean ± standard deviation)” value (aggregated human αSyn; [1])?
Its value is 1664 ± 1409.

And the “Antibody titer with respect to human αSyn (N = 4 − 6, mean ± standard deviation)” value (human αSyn; [1])?
Its value is 2389 ± 1399.

Which “Antibody-inducing ability regarding the aggregated human αSyn (in words)” value (aggregated human αSyn) does the source give for “ELKLIFLHRLKRLRKRLKRKXKKNQLGKND (ELKLIFLHRLKRLRKRLKRK[Ahx]KKNQLGKND) [AJ-p272]” here?
Its value is “particularly strong antibody-inducing ability”.

And the “Antibody titer with respect to aggregated human αSyn (N = 4 − 6, mean ± standard deviation)” value (aggregated human αSyn; [1])?
The value was 1536 ± 1724.

And the “Antibody titer with respect to human αSyn (N = 4 − 6, mean ± standard deviation)” value (human αSyn; [1])?
The value was 4096 ± 2896.

Which results are given for “ELKLIFLHRLKRLRKRLKRKPPDPDPEAYEMPSEE [AJ-PPDPDP-p150]”?
Antibody titer with respect to aggregated human αSyn, relative to control (aggregated human αSyn; [2]): 1.37; Antibody titer with respect to human αSyn, relative to control (human αSyn; [2]): 1.33

With “ELKLIFLHRLKRLRKRLKRKϵKKKDQLGKNE [AJ-εK-p54]” as the substance, how does the “Antibody titer with respect to aggregated human αSyn, relative to control” value (aggregated human αSyn; [2]) read?
Its value is 0.81.

What about the “Antibody titer with respect to human αSyn, relative to control” value (human αSyn; [2]) of the same substance?
The value was 0.70.

What does the source list for “KKDQLGKNE-C-KLH (KKDQLGKNEC-{KLH}) [p54-KLH, KLH-human αSyn peptide conjugate]”?
Induction of the antibody to human αSyn (in words) (human αSyn; Example 3, mice): the antibody to human αSyn was induced; Antibody titer (N = 4 − 6, mean ± standard deviation) with respect to human αSyn (human αSyn): 3072 ± 2748

“ELKLIFLHRLKRLRKRLKRKXKKNQLGKNE (ELKLIFLHRLKRLRKRLKRK[Ahx]KKNQLGKNE) [AJ-p237]” was tested. Which “Antibody titer with respect to aggregated human αSyn, relative to control” value (aggregated human αSyn; [3]) did it give?
The value was 0.95.

What about the “Antibody titer compared with control conjugate (in words)” value (human αSyn) of the same substance?
The value was “same level of an antibody titer”.

What about the “Antibody titer with respect to human αSyn, relative to control” value (human αSyn; [3]) of the same substance?
Its value is 0.91.

Which results are given for “ELKLIFLHRLKRLRKRLKRKXKKDQLGKNE-C-KLH (not fully specified; C-terminal Cys linked to KLH) [AJ-p54-KLH, KLH-modified AJ-human αSyn peptide conjugate, KLH linked via cysteine to the C-terminal]”?
Induction of the antibody to aggregated human αSyn (in words) (aggregated human αSyn; Example 4, balb/c mice): induced; Antibody titer with respect to aggregated human αSyn (mean ± standard deviation) (aggregated human αSyn; [4]): 640 ± 314; Induction of the antibody to human αSyn (in words) (human αSyn; Example 3, mice): induced to the same extent; Antibody titer (N = 4 − 6, mean ± standard deviation) with respect to human αSyn (human αSyn): 1621 ± 681; Induction of the antibody to human αSyn (in words) (human αSyn; Example 4, balb/c mice): induced; Antibody titer with respect to human αSyn (mean ± standard deviation) (human αSyn; [4]): 1621 ± 681

Which results are given for “ELKLIFLHRLKRLRKRLKRKGGGGSEAYEMPSEE [AJ-GGGGS-p150]”?
Antibody titer with respect to aggregated human αSyn, relative to control (aggregated human αSyn; [2]): 1.25; Antibody titer with respect to human αSyn, relative to control (human αSyn; [2]): 1.19

With “KLH-C-ELKLIFLHRLKRLRKRLKRKXKKDQLGKNE ({KLH}-CELKLIFLHRLKRLRKRLKRK[Ahx]KKDQLGKNE) [KLH-AJ-p54, KLH-modified AJ-human αSyn peptide conjugate, KLH linked via cysteine to the N-terminal]” as the substance, how does the “Induction of the antibody to human αSyn (in words)” value (human αSyn; Example 3, mice) read?
Its value is “induced to the same extent”.

And the “Antibody titer (N = 4 − 6, mean ± standard deviation) with respect to human αSyn” value (human αSyn)?
The value was 1707 ± 1240.

“ELKLIFLHRLKRLRKRLKRKXDAFEMPSEEG (ELKLIFLHRLKRLRKRLKRK[Ahx]DAFEMPSEEG) [AJ-p361]” was tested. Which “Antibody titer with respect to aggregated human αSyn, relative to control” value (aggregated human αSyn; [3]) did it give?
Its value is 0.95.

And the “Antibody titer compared with control conjugate (in words)” value (human αSyn)?
Its value is “same level of an antibody titer”.

What about the “Antibody titer with respect to human αSyn, relative to control” value (human αSyn; [3]) of the same substance?
Its value is 0.92.

Which “Antibody-inducing ability regarding the aggregated human αSyn (in words)” value (aggregated human αSyn) does the source give for “ELKLIFLHRLKRLRKRLKRKXKRDQLGKNE (ELKLIFLHRLKRLRKRLKRK[Ahx]KRDQLGKNE) [AJ-p227]” here?
Its value is “particularly strong antibody-inducing ability”.

What about the “Antibody titer with respect to aggregated human αSyn (N = 4 − 6, mean ± standard deviation)” value (aggregated human αSyn; [1]) of the same substance?
Its value is 3072 ± 2748.

What about the “Antibody titer with respect to human αSyn (N = 4 − 6, mean ± standard deviation)” value (human αSyn; [1]) of the same substance?
The value was 4267 ± 3200.
